Laboratory results: publication PMC3608651, “A Broad Profile of Co-Dominant Epitopes Shapes the Peripheral Mycobacterium tuberculosis Specific CD8+ T-Cell Immune Response in South African Patients with Active Tuberculosis” (PLoS ONE, 2013)
Read-outs that look alike come from different tables or passages of the source.

Key:
Format in all cases: binding
[1] = molecular target: HLA-A*02:01 (Homo sapiens, UniProt P04439, D140Y/D185E/D98H/E176V/E277Q/G131W/G231S/I119V/I121R/I166T/I218V/L300P/L318F/N151K/N90K/P208A/P217A/Q86G/Q94H/R138H/R169H/T345S)
[2] = molecular target: HLA-B*07:02 (Homo sapiens, UniProt P01889); settings: percent relative the binding of positive control peptide […]; duplicated experiments; positive binder >40%
[3] = molecular target: HLA-A*68:01 (Homo sapiens, UniProt P04439, A269V/D185E/E176V/E277Q/E87N/F33Y/G231S/I121M/I166T/I218V/L180W/L300P/L318F/N151K/P208A/P217A/Q86R/R169H/T345S); settings: duplicated experiments, positive binder >40%
[4] = molecular target: HLA-A*30:01 (Homo sapiens, UniProt P04439, D140H/D185E/E176W/F33S/G80R/H175R/K168Q/R138E/R41S); settings: duplicated experiments, positive binder >40%
[5] = molecular target: HLA-C*07:01 (Homo sapiens, UniProt P10321, K90N/S123Y); settings: duplicated experiments, positive binder >40%
[6] = molecular target: HLA-B*58:01 (Homo sapiens, UniProt P01889, A329T/C349S/D201E/D98Y/E176V/E187L/E204Q/E69T/G107R/I218V/I90N/K202T/L105A/L119I/N104I/N87E/Q89R/Q94S/R106L/R155S/R180L/R86G/S101N/S121R/S35A/S48A/T118I/V127L/V306I/V36M/Y140S/Y91M); settings: duplicated experiments, positive binder >40%
[7] = molecular target: HLA-A*30:02 (Homo sapiens, UniProt P04439, D101N/D140H/D185E/E176R/F33S/G80R/H175R/K168Q/Q94H/R138E/R41S/V100E); settings: duplicated experiments, positive binder >40%
[8] = molecular target: HLA-A*24:02 (Homo sapiens, UniProt P04439, D101N/D140Y/D185E/E176V/E190D/F33S/G103R/G107R/I119L/I121M/I306V/K335N/L105A/L180Q/L300P/N151K/N90K/Q86E/Q94H/R106L/R138H/R89G/T104I/T345S/V100E/W191G/Y123F)
[9] = percent relative the binding of positive control peptide […], plate-bound monomer 0.5 µg/ml, duplicated experiments, positive binder >40%
[10] = percent relative the binding of positive control peptide […]
[11] = percent relative the binding of positive control peptide […], duplicated experiments, positive binder >40%
[12] = percent relative the binding of positive control peptide FLPSDFFPSV, plate-bound monomer 0.5 µg/ml, duplicated experiments, positive binder >40%
[13] = percent relative the binding of positive control peptide KTGGPIYKR
[14] = percent relative the binding of positive control peptide KTKDIVNGL
[15] = percent relative the binding of positive control peptide KYFDEHYEY
[16] = percent relative the binding of positive control peptide IAMESIVIW
[17] = percent relative the binding of positive control peptide KIQNFRVYY
[18] = percent relative the binding of positive control peptide RYLKDQQLL, duplicated experiments, positive binder >40%

| Substance | Bind A*02:01 [1, 9] | Bind B*07:02 [2] | Bind A*68:01 [3, 10] | Bind A*30:01 [4, 10] | Bind C*07:01 [5, 10] | Bind B*58:01 [6, 10] | Bind A*30:02 [7, 10] | Bind A*24:02 [8, 11] | Bind A*02:01 [1, 12] | Bind A*68:01 [3, 13] | Bind A*30:01 [4, 14] | Bind C*07:01 [5, 15] | Bind B*58:01 [6, 16] | Bind A*30:02 [7, 17] | Bind A*24:02 [8, 18] | Bind A*02:01 [1] | Bind A*24:02 [8] |
| --- | --- | --- | --- | --- | --- | --- | --- | --- | --- | --- | --- | --- | --- | --- | --- | --- | --- |
| ACGKAGCQT | 44% | 9% | 13% | 19% | 0% | 0% | 0% | 25% |  |  |  |  |  |  |  |  |  |
| AEFLENFVR | 12% | 0% | 63% | 0% | 13% | 10% | 0% | 1% |  |  |  |  |  |  |  |  |  |
| AGGYKAADM | 0% | 0% | 0% | 0% | 0% | 0% | 85% | 0% |  |  |  |  |  |  |  |  |  |
| AGSSAMILA | 56% | 10% | 2% | 0% | 14% | 12% | 0% | 0% |  |  |  |  |  |  |  |  |  |
| AIQGNVTSI [Rv3875_17-25] |  | 4% |  |  |  |  |  |  | 45% | 29% | 0% | 14% | 21% | 49% | 9% |  |  |
| ALLDPSQGM | 60% | 17% | 0% | 5% | 22% | 1% | 86% | 0% |  |  |  |  |  |  |  |  |  |
| AMILAAYHP |  | 1% | 0% | 0% | 1% | 64% | 33% | 0% |  |  |  |  |  |  |  | 34 |  |
| AQLNAMKGD | 10% | 0% | 0% | 0% | 3% | 0% | 56% | 29% |  |  |  |  |  |  |  |  |  |
| ATELNNALQ [Rv3875_62–70] |  | 12% |  |  |  |  |  |  | 8% | 5% | 16% | 8% | 4% | 45% | 13% |  |  |
| AVKPTGSAA | 10% | 82% | 0% | 0% | 0% | 0% | 7% |  |  |  |  |  |  |  |  |  | 0 |
| CGNGTPNEL | 20% | 0% | 0% | 0% | 28% | 0% | 41% | 2% |  |  |  |  |  |  |  |  |  |
| DAYNAAGGH | 4% | 12% | 64% | 8% | 16% | 29% | 18% | 14% |  |  |  |  |  |  |  |  |  |
| DGLRAQDDY | 0% | 1% | 4% | 2% | 0% | 0% | 58% | 0% |  |  |  |  |  |  |  |  |  |
| DINTPAFEW | 0% | 9% | 3% | 7% | 10% | 58% | 0% | 56% |  |  |  |  |  |  |  |  |  |
| DLVRAYHSM [Rv0288_64–72m1] |  |  | 4% |  |  |  |  | 0% |  |  |  |  |  |  |  |  |  |
| DPSQGMGPS | 30% | 0% | 0% | 21% | 19% | 12% | 29% | 58% |  |  |  |  |  |  |  |  |  |
| ELGGANIPA | 47% | 0% | 0% | 0% | 0% | 0% | 0% | 0% |  |  |  |  |  |  |  |  |  |
| ELPQW LSAN | 15% | 16% | 31% | 20% | 0% | 0% | 0% | 56% |  |  |  |  |  |  |  |  |  |

| Substance | Bind A*02:01 [1, 9] | Bind B*07:02 [2] | Bind A*68:01 [3, 10] | Bind A*30:01 [4, 10] | Bind C*07:01 [5, 10] | Bind B*58:01 [6, 10] | Bind A*30:02 [7, 10] | Bind A*24:02 [8, 11] | Bind A*02:01 [1, 12] | Bind A*68:01 [3, 13] | Bind A*30:01 [4, 14] | Bind C*07:01 [5, 15] | Bind B*58:01 [6, 16] | Bind A*30:02 [7, 17] | Bind A*24:02 [8, 18] | Bind A*02:01 [1] | Bind A*24:02 [8] |
| --- | --- | --- | --- | --- | --- | --- | --- | --- | --- | --- | --- | --- | --- | --- | --- | --- | --- |
| FIYAGSLSA | 79% | 70% | 38% | 0% | 35% | 2% | 21% | 11% |  |  |  |  |  |  |  |  |  |
| FLENFVRSS | 77% | 0% | 7% | 0% | 5% | 0% | 0% | 5% |  |  |  |  |  |  |  |  |  |
| FLTSELPQW | 75% | 8% | 5% | 0% | 0% | 71% | 3% | 117% |  |  |  |  |  |  |  |  |  |
| FYSDW YSPA | 61% | 0% | 0% | 13% | 0% | 0% | 0% | 10% |  |  |  |  |  |  |  |  |  |
| GANIPAEFL | 41% | 0% | 0% | 0% | 0% | 16% | 0% | 0% |  |  |  |  |  |  |  |  |  |
| GGANIPAEF | 4% | 0% | 0% | 0% | 5% | 57% | 70% | 0% |  |  |  |  |  |  |  |  |  |
| GGHNAVFNF | 40% | 19% | 0% | 0% | 22% | 52% | 0% | 34% |  |  |  |  |  |  |  |  |  |
| GGNNSPAVY | 0% | 0% | 3% | 0% | 45% | 0% | 90% | 0% |  |  |  |  |  |  |  |  |  |
| GGYKAADMW | 0% | 0% | 11% | 0% | 0% | 61% | 0% | 34% |  |  |  |  |  |  |  |  |  |
| NLGAEIAVE [Rv0288_27–35m1] | 29% |  |  |  |  |  |  |  |  |  |  |  |  |  |  |  |  |
| QNLGAEIAV [Rv0288_26–34m1] | 28% |  |  |  |  | 0% |  |  |  |  |  |  |  |  |  |  |  |
| TLQNLGAEI [Rv0288_24–32m1] | 26% |  |  |  |  |  |  | 4% |  |  |  |  |  |  |  |  |  |
| TMLDHAGDM [Rv0288_10–18m3] | 24% |  |  |  |  |  | 0% | 14% |  |  |  |  |  |  |  |  |  |
| VRAYHSMSS [Rv0288_66–74m1] |  |  |  |  | 3% |  |  |  |  |  |  |  |  |  |  |  |  |
| YNYPAMLDH [Rv0288_6–14m2] |  |  |  |  | 0% |  |  |  |  |  |  |  |  |  |  |  |  |
| YNYPTMLDH [Rv0288_6–14m3] |  |  |  |  | 0% |  |  |  |  |  |  |  |  |  |  |  |  |
| YNYPTMLGH [Rv0288_6–14m1] |  |  |  |  | 0% |  |  |  |  |  |  |  |  |  |  |  |  |
